Where two headings read alike, the source gives them in different places.
Legend:
AHR [1] = target: T1, AHR (Homo sapiens, UniProt P35869); experiment: In vitro assay 1: antagonism in human cell line (AHR transactivation, firefly luciferase reporter, kynurenic acid prestimulated); type: cell-based; conditions: AHR Antagonism Human IC50 [M]
T1 construct: U87 MG glioblastoma cells (ATCC #HTB-14) endogenously expressing AHR; endogenous in cells; host or cells: U87 MG glioblastoma cells (ATCC #HTB-14)
T1 sequence (P35869 11-848): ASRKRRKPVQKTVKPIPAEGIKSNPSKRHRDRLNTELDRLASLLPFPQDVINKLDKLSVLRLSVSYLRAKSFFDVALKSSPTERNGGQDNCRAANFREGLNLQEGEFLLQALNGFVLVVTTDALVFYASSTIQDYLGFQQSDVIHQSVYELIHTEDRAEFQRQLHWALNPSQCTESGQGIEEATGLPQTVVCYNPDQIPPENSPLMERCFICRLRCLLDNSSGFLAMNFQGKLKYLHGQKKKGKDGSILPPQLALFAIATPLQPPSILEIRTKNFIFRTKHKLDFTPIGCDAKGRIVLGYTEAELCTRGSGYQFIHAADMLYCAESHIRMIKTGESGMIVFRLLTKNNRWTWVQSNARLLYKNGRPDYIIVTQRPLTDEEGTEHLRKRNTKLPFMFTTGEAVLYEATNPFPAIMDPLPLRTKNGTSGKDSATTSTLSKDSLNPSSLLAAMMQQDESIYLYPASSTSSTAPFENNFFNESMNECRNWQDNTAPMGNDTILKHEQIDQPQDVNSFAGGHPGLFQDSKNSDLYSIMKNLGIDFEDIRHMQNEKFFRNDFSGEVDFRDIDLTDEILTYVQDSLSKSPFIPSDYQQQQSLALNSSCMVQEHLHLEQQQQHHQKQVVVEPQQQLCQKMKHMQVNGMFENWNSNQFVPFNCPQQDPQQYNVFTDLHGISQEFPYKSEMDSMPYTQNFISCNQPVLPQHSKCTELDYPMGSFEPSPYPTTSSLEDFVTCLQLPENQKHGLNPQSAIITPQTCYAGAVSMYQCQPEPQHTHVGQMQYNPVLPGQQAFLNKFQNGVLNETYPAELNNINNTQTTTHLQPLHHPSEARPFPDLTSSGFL
In short: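 Antagonism is measured against kynurenic acid prestimulation in U87 MG glioblastoma cells carrying stable DRE-luciferase and Renilla reporters. Positive inhibition control: 150 μM kynurenic acid with 5 μM staurosporine. Values are normalized to controls; repeats are averaged or given as medians.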

AHR [2] = target: T2, AHR (Mus musculus, UniProt P30561); experiment: In vitro assay 3: antagonism in mouse cell line (AHR transactivation, firefly luciferase reporter, kynurenic acid prestimulated); type: cell-based
T2 sequence (P30561 1-848 P471L/N533S/M589L): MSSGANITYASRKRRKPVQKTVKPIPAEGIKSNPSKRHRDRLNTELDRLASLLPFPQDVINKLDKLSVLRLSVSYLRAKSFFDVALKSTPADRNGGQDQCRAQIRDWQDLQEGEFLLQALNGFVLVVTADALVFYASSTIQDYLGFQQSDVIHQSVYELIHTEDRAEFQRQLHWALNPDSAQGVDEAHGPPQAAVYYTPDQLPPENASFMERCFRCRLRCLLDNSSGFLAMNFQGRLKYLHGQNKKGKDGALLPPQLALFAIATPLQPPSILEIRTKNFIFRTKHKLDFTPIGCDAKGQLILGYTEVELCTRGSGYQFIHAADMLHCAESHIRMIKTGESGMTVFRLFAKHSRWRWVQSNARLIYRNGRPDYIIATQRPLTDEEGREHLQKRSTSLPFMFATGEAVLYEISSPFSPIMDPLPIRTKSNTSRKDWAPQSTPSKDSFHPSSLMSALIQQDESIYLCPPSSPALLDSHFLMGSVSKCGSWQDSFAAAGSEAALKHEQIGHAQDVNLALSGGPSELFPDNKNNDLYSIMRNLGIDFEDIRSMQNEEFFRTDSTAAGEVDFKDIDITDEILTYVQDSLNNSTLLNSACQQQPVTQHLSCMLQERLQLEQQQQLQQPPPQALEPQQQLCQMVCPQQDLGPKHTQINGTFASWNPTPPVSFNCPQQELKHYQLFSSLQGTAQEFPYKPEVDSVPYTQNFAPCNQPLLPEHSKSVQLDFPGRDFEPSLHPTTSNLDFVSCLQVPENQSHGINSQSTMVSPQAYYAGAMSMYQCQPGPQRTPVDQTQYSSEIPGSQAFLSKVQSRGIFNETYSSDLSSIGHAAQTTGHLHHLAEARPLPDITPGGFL
In short: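 Luminescence from an AHR-dependent DRE-luciferase reporter, stably integrated in mouse cells, quantifies blockade of kynurenic acid-driven activation. Unstimulated cells mark maximal inhibition; normalization uses both control types, and multiply tested compounds carry mean or median values.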

[3] = mouse Hepa 1c1c7 cells, 200 μM kynurenic acid, 20 hours, read-out: AHR Antagonism Mouse IC50
[4] = Hepa 1c1c7 cells, 200 μM kynurenic acid, 20 hours, firefly luciferase reporter, read-out: AHR Antagonism Mouse IC50

| SMILES | IC50 (AHR [1]) [M] | IC50 (AHR [2]; [3]) [µM] | IC50 (AHR [2]; read-out: AHR Antagonism Mouse IC50, mouse Hepa 1c1c7 cells, 200 μM kynurenic acid, 20 hours) [µM] | IC50 (AHR [1]; firefly luciferase reporter) [M] | IC50 (AHR [2]; [4]) [µM] |
| --- | --- | --- | --- | --- | --- |
| COc1ccc(-c2nc3c4cccc(C5(C(F)(F)F)CC5)c4nc(N[C@@H]4CCCCNC4=O)n3n2)cc1 [Example 398, (3R)-3-({2-(4-methoxyphenyl)-7-[1-(trifluoromethyl)cyclopropyl][1,2,4]triazolo[1,5-c]quinazolin-5-yl}amino)azepan-2-one] | 2.24e-08 | 0.135 | – | – | – |
| CS(=N)(=O)c1ccccc1-c1nc2c3ccccc3nc(N[C@@H]3CCCCNC3=O)n2n1 (single isomer, unassigned) [Example 662] | 6.86e-08 | – | 0.0704 | – | – |
| CC(C)n1cc(-c2nc3c4cccc(Br)c4nc(N[C@@H]4CCCCNC4=O)n3n2)cn1 [Example 822, (3R)-3-({7-bromo-2-[1-(propan-2-yl)-1H-pyrazol-4-yl][1,2,4]triazolo[1,5-c]quinazolin-5-yl}amino)azepan-2-one] | – | – | – | 7.23e-10 | 0.00168 |
| CC[C@H](Nc1nc2c(Br)cccc2c2nc(-c3ccc(C#N)cc3)nn12)C(N)=O [Example 564, (2S)-2-{[7-bromo-2-(4-cyanophenyl)[1,2,4]triazolo[1,5-c]quinazolin-5-yl]amino}butanamide] | 1.23e-08 | 0.0175 | – | – | – |
| COc1cccc(-c2nc3c4c(C)cccc4nc(N[C@H]4CCCNC4=O)n3n2)c1 [Example 182, (3S)-3-{[2-(3-methoxyphenyl)-10-methyl[1,2,4]triazolo[1,5-c]quinazolin-5-yl]amino}piperidin-2-one] | 2.54e-07 | 1.02 | – | – | – |
| CS(=O)(=O)c1ccc(-c2nc3c4ccccc4nc(N[C@@H]4CCNC4=O)n3n2)cc1 [Example 373, (3R)-3-({2-[4-(methanesulfonyl)phenyl][1,2,4]triazolo[1,5-c]quinazolin-5-yl}amino)pyrrolidin-2-one] | 6.38e-07 | 0.514 | – | – | – |
| CCn1cc(-c2nc3c4cccc(F)c4nc(N[C@@H]4CNCCNC4=O)n3n2)cn1 [Example 961, (6R)-6-{[2-(1-ethyl-1H-pyrazol-4-yl)-7-fluoro-[1,2,4]triazolo[1,5-c]quinazolin-5-yl]amino}1-4,-diazepan-5-one] | – | – | – | 7.95e-07 | 0.272 |
| CCn1cc(-c2nc3c4ccccc4nc(N[C@@H]4CCCCNC4=O)n3n2)cn1 [Example 67] | 6.43e-09 | 0.00553 | – | – | – |
| Cc1sccc1-c1nc2c3ccccc3nc(N[C@@H]3CCCNC3=O)n2n1 [Example 348, (3R)-3-{[2-(2-methylthiophen-3-yl)[1,2,4]triazolo[1,5-c]quinazolin-5-yl]amino}piperidin-2-one] | 7.76e-08 | 0.0374 | – | – | – |
| N#Cc1ccc(-c2nc3c4ccccc4nc(N[C@@H]4CNCCNC4=O)n3n2)cc1 [Example 718, 4-(5-{[(6R)-5-oxo-1,4-diazepan-6-yl]amino}[1,2,4]triazolo[1,5-c]quinazolin-2-yl)benzonitrile] | 1.93e-08 | 0.00812 | – | – | – |
| COc1ccc(-c2nc3c4cccc(S(=O)(=O)C(C)C)c4nc(N[C@@H]4CNCCNC4=O)n3n2)cc1 [Example 941, (6R)-6-{[2-(4-methoxyphenyl)-7-(propan-2-sulfonyl)[1,2,4]triazolo[1,5-c]quinazolin-5-yl]amino}-1,4-diazepan-5-one] | – | – | – | 3.61e-08 | 0.0675 |
| O=C1NCCC[C@H]1Nc1nc2ccccc2c2nc(-c3ccsc3)nn12 [Example 343, (3R)-3-{[2-(thiophen-3-yl)[1,2,4]triazolo[1,5-c]quinazolin-5-yl]amino}piperidin-2-one] | 6.67e-08 | 0.178 | – | – | – |
| O=C1NCCCC[C@@H]1Nc1nc2ccccc2c2nc(-c3ccncc3F)nn12 [Example 481, (3S)-3-{[2-(3-fluoropyridin-4-yl)[1,2,4]triazolo[1,5-c]quinazolin-5-yl]amino}azepan-2-one] | 1.02e-06 | 0.104 | – | – | – |
| COc1ccc(-c2nc3c4cccc(S(C)(=O)=O)c4nc(N[C@@H]4CNCCNC4=O)n3n2)cc1 [Example 936, (6R)-6-{[7-(methanesulfonyl)-2-(4-methoxyphenyl)[1,2,4]triazolo[1,5-c]quinazolin-5-yl]amino}-1,4-diazepan-5-one] | – | – | – | 1.27e-08 | 0.0669 |
| CS(=O)(=O)c1ccc(-c2nc3c4ccccc4nc(N[C@@H]4CCCNC4=O)n3n2)cc1 [Example 374, (3R)-3-({2-[4-(methanesulfonyl)phenyl][1,2,4]triazolo[1,5-c]quinazolin-5-yl}amino)piperidin-2-one] | 4.49e-07 | 0.211 | – | – | – |
| CS(=N)(=O)c1cccc(-c2nc3c4ccccc4nc(N[C@@H]4CCCCNC4=O)n3n2)c1 (single isomer, unassigned) [Example 659] | 1.62e-06 | 4.5 | – | – | – |
| CSc1ccc(-c2nc3c4ccccc4nc(N[C@@H]4CCCCNC4=O)n3n2)cc1 [Example 202, (3R)-3-({2-[4-(methylsulfanyl)phenyl][1,2,4]triazolo[1,5-c]quinazolin-5-yl}amino)azepan-2-one] | 5.17e-10 | 0.000657 | – | – | – |
| COc1ccc(-c2nc3c4cc(C#N)ccc4nc(N[C@@H]4CCCCNC4=O)n3n2)cc1 [Example 401, 2-(4-Methoxyphenyl)-5-{[(3R)-2-oxoazepan-3-yl]amino}[1,2,4]triazolo[1,5-c]quinazoline-9-carbonitrile] | 4.44e-09 | 0.0087 | – | – | – |
| O=C1NCCNC[C@H]1Nc1nc2c(Br)cccc2c2nc(-c3cccc(F)c3)nn12 [Example 268, (6R)-6-{[7-bromo-2-(3-fluorophenyl)[1,2,4]triazolo[1,5-c]quinazolin-5-yl]amino}-1,4-diazepan-5-one] | 6.36e-09 | 0.00307 | – | – | – |
| O=C1NCC[C@H]1Nc1nc2ccccc2c2nc(-c3ccccc3OC(F)(F)F)nn12 [Example 459, (3R)-3-({2-[2-(trifluoromethoxy)phenyl][1,2,4]triazolo[1,5-c]quinazolin-5-yl}amino)pyrrolidin-2-one] | 7.9e-08 | 0.0302 | – | – | – |
| N#Cc1ccc(-c2nc3c4cccc(Br)c4nc(N[C@@H]4CNCCNC4=O)n3n2)cc1 [Example 717, 4-(7-bromo-5-{[(6R)-5-oxo-1,4-diazepan-6-yl]amino}[1,2,4]triazolo[1,5-c]quinazolin-2-yl)benzonitrile] | 7.05e-10 | 0.00095 | – | – | – |
| CC[C@@H](Nc1nc2ccccc2c2nc(-c3cnn(C)c3)nn12)C(N)=O [Example 17, (2R)-2-{[2-(1-methyl-1H-pyrazol-4-yl)[1,2,4]triazolo[1,5-c]quinazolin-5-yl]amino}butanamide] | 7.44e-08 | 0.0276 | – | – | – |
| Cn1cc(-c2nc3c4cccc(Cl)c4nc(N[C@@H]4CNCCNC4=O)n3n2)cn1 [Example 253, (6R)-6-{[7-Chloro-2-(1-methyl-1H-pyrazol-4-yl)[1,2,4]triazolo[1,5-c]quinazolin-5-yl]amino}-1,4-diazepan-5-one] | 2.71e-08 | 0.0368 | – | – | – |

From US20230113037A1 (Bayer Aktiengesellschaft, priority 2019, published 2023)
